Source: publication PMC9973354 (mBio, 2022)
Starred links: 1 amine or outer side, 2 acyl side, 3 side chain; linkers in the order of their positions; H or OH if unused. Positions of bridges follow the written chain, without caps; N, C: chain ends. Non-standard residues stand in square brackets, D forms with d. Residues, ends and D or L forms follow the SMILES beside them. ξ: configuration not given here. X1 = O=C([C@@H]1CCN=C2C(N[*:1])=Cc3cc(O)c(O)cc3N21)[*:2]; ξOrn(N(OH)CHO) = NC(CCCN(O)C=O)C(=O)O; Suc = O=C(CCC(=O)[*:2])[*:1]; ξK = NCCCCC(N)C(=O)O; ξS = NC(CO)C(=O)O

Key:
FpvA T660C = target: T1, FpvA T660C (Pseudomonas aeruginosa, UniProt P48632, T660C); assay: Whole-cell fluorescence quenching, FpvA T660C; format: binding; conditions: cells expressing FpvA T660C
T1 construct: expressed in transfected cells; host or cells: P. aeruginosa PA14 ΔfpvA ΔfpvB, plasmid pHERD20T-fpvA T660C, arabinose-induced
Source text: (§1) To determine the affinity of the siderophores for FpvA and FpvB, we adapted the method from Chakravorty et al. to generate a whole-cell sensor where fluorescence quenching serves as an indicator of ligand interaction ([31]). Siderophore binding triggers conformational changes at the extracellular loops of the TBDT (Fig. 3A). Cys substitutions were introduced at the loops and labeled with a fluorescent maleimide dye. When a ligand binds the transporter, the loops fold inward toward the lumen of the barrel, and changes in the chemical environment surrounding the fluorophore lead to quenching ([31], [32]). Fluorescence recovery occurs once the siderophore is taken up and the loop returns to its original conformation.
Cells were cultured overnight in LB with carbenicillin (200 μg/mL) at 37°C with shaking at 200 rpm. […] Cells were harvested by centrifugation for 5 min and 6,000 × g and resuspended in sterile 1× phosphate-buffered saline (PBS) (pH 7.4); 1× PBS was made from a 10× stock (80 g NaCl, 2 g KCl, 26.8 g Na2 HPO4-7H2O, 2.4 g KH2PO4 in 1 L of deionized H2O) with 10 μM Alexa Fluor 594 C5 maleimide for microscopy or fluorescein-5-maleimide for fluorescence quenching and recovery assays and incubated in the dark at room temperature for 30 min on a shaking incubator at 37°C (200 rpm). […]

FpvB R648C [1] = target: T2, FpvB R648C (Pseudomonas aeruginosa, UniProt A0A0H2ZFZ5, R648C); assay: Whole-cell fluorescence quenching, FpvB R648C in quadruple mutant; format: binding
T2 sequence (A0A0H2ZFZ5 23-802 R648C): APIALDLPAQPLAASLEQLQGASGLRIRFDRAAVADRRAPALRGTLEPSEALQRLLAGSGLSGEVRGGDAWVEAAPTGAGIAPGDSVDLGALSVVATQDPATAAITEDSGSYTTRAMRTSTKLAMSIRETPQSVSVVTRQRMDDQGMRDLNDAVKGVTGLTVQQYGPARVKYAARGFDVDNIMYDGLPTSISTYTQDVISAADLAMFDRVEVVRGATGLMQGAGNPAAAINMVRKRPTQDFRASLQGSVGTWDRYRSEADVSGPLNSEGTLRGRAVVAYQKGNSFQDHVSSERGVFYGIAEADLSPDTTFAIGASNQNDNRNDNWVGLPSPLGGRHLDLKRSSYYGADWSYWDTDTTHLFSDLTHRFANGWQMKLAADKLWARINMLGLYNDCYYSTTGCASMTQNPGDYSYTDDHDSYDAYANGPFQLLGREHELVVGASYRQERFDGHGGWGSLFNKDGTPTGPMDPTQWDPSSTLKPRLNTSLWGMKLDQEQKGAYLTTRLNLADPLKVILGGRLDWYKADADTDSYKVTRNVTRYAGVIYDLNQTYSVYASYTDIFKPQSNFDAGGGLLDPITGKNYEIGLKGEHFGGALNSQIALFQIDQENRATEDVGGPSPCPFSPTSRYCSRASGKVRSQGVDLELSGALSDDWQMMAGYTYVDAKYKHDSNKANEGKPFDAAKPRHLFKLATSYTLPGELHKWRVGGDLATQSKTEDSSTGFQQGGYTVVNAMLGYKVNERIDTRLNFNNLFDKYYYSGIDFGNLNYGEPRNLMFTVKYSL
Method: (§2) Quenching assays with the two xenosiderophores were repeated for the quadruple TBDT mutant expressing WT FpvB, FpvB R191A R648C, or W347V R648C.
(§3) Cells were cultured overnight in LB with carbenicillin (200 μg/mL) at 37°C with shaking at 200 rpm. Cells were subcultured (1:200 dilution) in 10:90 plus 2% arabinose for 4 h without carbenicillin at 37°C with shaking at 200 rpm. Cells were harvested by centrifugation for 5 min and 6,000 × g and resuspended in sterile 1× phosphate-buffered saline (PBS) (pH 7.4); 1× PBS was made from a 10× stock (80 g NaCl, 2 g KCl, 26.8 g Na2 HPO4-7H2O, 2.4 g KH2PO4 in 1 L of deionized H2O) with 10 μM Alexa Fluor 594 C5 maleimide for microscopy or fluorescein-5-maleimide for fluorescence quenching and recovery assays and incubated in the dark at room temperature for 30 min on a shaking incubator at 37°C (200 rpm). Excess dye was quenched with 1 mM dithiothreitol (DTT) (Sigma) to stop the reaction. Cells were washed 3× with PBS. For fluorescence recovery assays, cells were incubated with 1× PBS plus 0.4% glucose at 37°C with shaking at 200 rpm. Glucose was prepared as a 20% stock (wt/vol) in 1× PBS and filter sterilized. Cells were spun down and washed 3× with 1× PBS and resuspended in 1× PBS for quenching assays and 1× PBS plus 0.4% glucose for fluorescence recovery assays.
(§4) For fluorescence quenching and recovery assays, cells were diluted to an OD600 of 0.1 for both types of assays, and 148 μL was added into wells of a 96-well black plate (Corning). Fluorescence was recorded for 5 min at 1-min intervals at 37°C (BioTek Neo; excitation, 494 nm; emission, 520 nm). After 5 min, 2 μL of each serial dilution for ferrioxamine-Fe^3+, ferrichrome-Fe^3+, and pyoverdine-Fe^3+ or DMSO for vehicle controls was added to each well. Fluorescence was recorded immediately for quenching assays and for 1 h at 1-min intervals for fluorescence recovery assays. Background fluorescence was subtracted from all fluorescence readings and 1-F/F0 was used to calculate the degree of quenching, where F0 is the initial fluorescence. Kd was calculated using GraphPad Prism using a one-site specific binding model or a two-site model. For fluorescence recovery assays, background was subtracted from all fluorescence readings and F/F0 expressed as a percent of control was plotted versus time.

FpvB R191A R648C = target: T3, FpvB R191A R648C (Pseudomonas aeruginosa, UniProt A0A0H2ZFZ5, R191A/R648C); assay: Whole-cell fluorescence quenching, FpvB R191A R648C; format: binding
T3 sequence (A0A0H2ZFZ5 23-802 R191A/R648C): T2 sequence (A0A0H2ZFZ5 23-802 R648C)
Method: as §2, §3, §4

FpvB W347V R648C = target: T4, FpvB W347V R648C (Pseudomonas aeruginosa, UniProt A0A0H2ZFZ5, R648C/W347V); assay: Whole-cell fluorescence quenching, FpvB W347V R648C; format: binding
T4 sequence (A0A0H2ZFZ5 23-802 W347V/R648C): T2 sequence (A0A0H2ZFZ5 23-802 R648C)
Method: as §2, §3, §4

FpvB R648C [2] = target: T2, FpvB R648C; assay: Whole-cell fluorescence quenching, FpvB R648C in ΔfpvA ΔfpvB; format: binding
Source text: as §1
Cells were cultured overnight in LB with carbenicillin (200 μg/mL) at 37°C with shaking at 200 rpm. Cells were subcultured (1:200 dilution) in 10:90 plus 2% arabinose for 4 h without carbenicillin at 37°C with shaking at 200 rpm. […] Excess dye was quenched with 1 mM dithiothreitol (DTT) (Sigma) to stop the reaction. Cells were washed 3× with PBS. For fluorescence recovery assays, cells were incubated with 1× PBS plus 0.4% glucose at 37°C with shaking at 200 rpm. Glucose was prepared as a 20% stock (wt/vol) in 1× PBS and filter sterilized. Cells were spun down and washed 3× with 1× PBS and resuspended in 1× PBS for quenching assays and 1× PBS plus 0.4% glucose for fluorescence recovery assays.
as §4

[3] = test system: PA14 ΔfpvA ΔfpvB pHERD20T-fpvB; assay: Checkerboard assay TS and siderophores, FpvB expressed; format: cell-based, Pseudomonas aeruginosa; conditions: 10:90 + 2% arabinose
Source text: We investigated this hypothesis by treating the ΔfpvA ΔfpvB mutant complemented with fpvA or fpvB with TS and pyoverdine-Fe^3+. If pyoverdine competes with TS for the same binding site in the transporter, a reduction in TS susceptibility would be expected, as competition would decrease entry of the antibiotic into the cell. TS susceptibility decreased >8-fold with increasing concentrations of pyoverdine-Fe^3+ when FpvA was expressed (see Fig. S2A in the supplemental material).
Supplementary file : FIG S2 Checkerboard assays of the PA14 ΔfpvA ΔfpvB strain complemented with fpvA and fpvB in trans with TS and siderophores. […] Checkerboards of the PA14 ΔfpvA ΔfpvB pHERD20T-fpvB strain with TS and enterobactin (G), ferrioxamine E (H), and arthrobactin (I). Results are averaged from three independent biological replicates. Cells in the assay were grown in 10:90 + 2% arabinose. Download FIG S2, EPS file, 2.2 MB.
Checkerboards (8 rows by 8 columns) were conducted as previously described in a 96-well plate (Nunc) ([13], [14]). TS at 75× the final concentration dissolved in DMSO was added in columns from bottom to top in increasing concentrations. […] The next day, the OD600 was determined with a plate reader (Thermo Scientific) and normalized to percent of growth of the vehicle control (DMSO) after subtracting the OD600 from blank media.

FpvB R648C [4] = target: T2, FpvB R648C; assay: Fluorescence recovery assay (siderophore uptake by FpvB); format: cell-based; conditions: siderophore at 1/2 Kd (1/2 Kd2 for ferrioxamine B), recorded for 1 h
Method: Cells were equilibrated for 5 min prior to introduction of the siderophores. Fluorescence was recorded every min for 1 h. Carbonyl cyanide m-chlorophenylhydrazone (CCCP) was used as a control to inhibit fluorescence recovery through dissipation of the proton motive force (PMF) ([2], [3]), which is required for uptake.
as §3, with “Glucose was prepared as a 20% stock (wt/vol) in 1× PBS and filter sterilized.” left out
as §4, with “After 5 min, 2 μL of each serial dilution for ferrioxamine-Fe^3+, ferrichrome-Fe^3+, and pyoverdine-Fe^3+ or DMSO for vehicle controls was added to each well.” left out, “For fluorescence recovery assays, background was subtracted from all fluorescence readings and F/F0 expressed as a percent of control was plotted versus time.” left out

[5] = FpvB R648C in quadruple mutant, two-site model

T1 sequence (P48632 44-815 T660C): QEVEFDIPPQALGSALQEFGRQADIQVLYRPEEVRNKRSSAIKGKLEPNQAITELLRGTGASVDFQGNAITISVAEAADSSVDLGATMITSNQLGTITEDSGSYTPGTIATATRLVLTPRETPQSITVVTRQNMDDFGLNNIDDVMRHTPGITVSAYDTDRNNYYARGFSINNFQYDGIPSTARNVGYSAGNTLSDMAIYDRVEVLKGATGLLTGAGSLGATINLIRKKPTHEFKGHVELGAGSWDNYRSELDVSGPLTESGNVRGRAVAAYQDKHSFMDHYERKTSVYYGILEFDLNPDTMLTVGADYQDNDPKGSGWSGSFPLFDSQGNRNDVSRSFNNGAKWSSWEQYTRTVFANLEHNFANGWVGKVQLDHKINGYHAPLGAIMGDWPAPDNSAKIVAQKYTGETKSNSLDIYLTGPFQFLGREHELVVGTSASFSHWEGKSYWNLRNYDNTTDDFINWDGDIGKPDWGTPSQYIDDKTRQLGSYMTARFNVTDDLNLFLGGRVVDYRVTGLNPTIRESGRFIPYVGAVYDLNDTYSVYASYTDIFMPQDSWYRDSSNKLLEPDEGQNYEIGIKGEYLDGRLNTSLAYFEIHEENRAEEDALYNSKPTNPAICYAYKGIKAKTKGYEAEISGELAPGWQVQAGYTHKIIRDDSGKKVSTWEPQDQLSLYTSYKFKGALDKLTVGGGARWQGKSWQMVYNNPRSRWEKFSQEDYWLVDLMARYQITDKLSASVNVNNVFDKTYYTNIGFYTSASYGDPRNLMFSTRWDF

Row | Compound | fluorescence quenching (FpvA T660C) | Kd (FpvB R648C [1]; FpvB R648C in ΔfpvA ΔfpvB ΔfiuA ΔfoxA) [µg/mL] | increase of Kd by the mutation (FpvB R191A R648C; R191A versus FpvB R648C) [fold] | increase of Kd by the mutation (FpvB W347V R648C; W347V versus FpvB R648C) [fold] | Kd for FpvB relative to FpvA (FpvB R648C [2]; higher for FpvB) [fold] | effect of siderophore on TS susceptibility [3] | fluorescence recovery (FpvB R648C [4]) | Kd1 (FpvB R648C [1]; [5]) | Kd2 (FpvB R648C [1]; [5]) [ng/mL] | Kd (FpvB R191A R648C; FpvB R191A R648C, one-site model) [µg/mL] | Kd1 (FpvB R648C [2]; FpvB R648C in ΔfpvA ΔfpvB, two-site model, higher-affinity site) | Kd2 (FpvB R648C [2]; FpvB R648C in ΔfpvA ΔfpvB, two-site model, lower-affinity site) [ng/mL] | Kd (FpvB W347V R648C; FpvB W347V R648C, one-site model) [µg/mL]
1 | ferrichrome-Fe^3+ | ~ 20% | 0.0085 ± 0.0008 | 76 | > 76 |  |  |  |  |  |  |  |  | 
2 | NCCCCC(NC(=O)C(CO)NC(=O)[C@@H]1CCN=C2C(NC(=O)CCC(=O)O)=Cc3cc(O)c(O)cc3N21)C(=O)NCC(=O)NC(CCCN(O)C=O)C(=O)NC1CCCCNC(=O)C(CO)NC(=O)C(CCCN(O)C=O)NC1=O.[Fe+3] (some centres unmarked) [pyoverdine-Fe^3+] (Suc-[X1][ξS][ξK]G[ξOrn(N(OH)CHO)][ξK][ξOrn(N(OH)CHO)][ξS]; lactam 6-C) |  |  |  |  | 200 | did not impact TS susceptibility | No recovery |  |  |  |  |  | 
3 | CC(=O)N([O-])CCCCCNC(=O)CCC(=O)N([O-])CCCCCNC(=O)CCC(=O)N([O-])CCCCCN.[Fe+3] [ferrioxamine B-Fe^3+] | No quenching |  |  |  |  |  |  | 1.0x10^2 ± 59 ng/mL | 370000 ± 95000 | 300 ± 43 | 1.0 × 10^2 ± 50 ng/mL | 270000 ± 47000 | 490 ± 68
